For data set [1] the following is noted: cited from earlier work; for half-life (t1/2): in humans.
The conditions of data set [2]: in vivo; cited from earlier work.
The subject of data set [3] is P. falciparum multi-drug resistant (MDR) clone Dd2. The data set is described as follows: In vitro growth inhibition IC50, Giemsa-stained smears (Example 1D), clone Dd2. In kind it is cell-based. To be noted: Plasmodium falciparum. Here is the method:
(§1) The Luo Han Guo general extract (Sample 8) was prepared by extraction of dried Luo Han fruit with hot water as in Example 1A, and then fractionated with EtOAc and n-butanol respectively as in Example 1A to yield 3 fractions corresponding to Samples 5a-7a. Samples 6a-7a also correspond to “compound B” and “compound A” respectively.
(§2) The P. falciparum was cell synchronized by adding 5% of D-sorbitol, and synchronized cells were then spread on culture plates after achieving ring form phase, with an initial infection rate of 1% and PCV at 5%.
(§3) 10 μl active ingredient solution plus 90 μl P. falciparum culture medium were spread on each well.
(§4) Drug-sensitive (DS) clone 3D7 and multi-drug resistant (MDR) clone Dd2 of Plasmodium falciparum, obtained from the Malaria Research and Reference Reagent Resource Centre (MR4), Manassas, Va., USA, were maintained continuously in blood group O+ human erythrocytes and 10% human serum in a gas mixture consisting of 7% CO2, 5% O2 and 88% N2.
(§5) In vitro inhibitory concentration assays. P. falciparum clones 3D7 and Dd2 were maintained continuously in blood group O+ human erythrocytes and 10% human serum in a gas mixture consisting of 7% CO2, 5% O2, and 88% N2, synchronized by serial treatments with 5% D-sorbitol. […]

The conditions of data set [4]: cited from earlier work.
For data set [5], the system named is P. falciparum drug-sensitive clone 3D7. The data set is described as follows: In vitro inhibitory concentration assay, light microscopy of Giemsa-stained smears (Example 1C), clone 3D7. It is filed as cell-based. The following applies: Plasmodium falciparum, 10^−4 g/L, read-out: Percent of Inhibition (%, Mean ± SD) 3D7. Here is the method: (§6) Parasite cultivation. Drug-sensitive clone 3D7 and multi-drug resistant (MDR) clone Dd2 of Plasmodium falciparum, obtained from the Malaria Research and Reference Reagent Resource Centre (MR4), Manassas, Va., USA, were maintained continuously in blood group O+ human erythrocytes and 10% human serum in a gas mixture consisting of 7% CO2, 5% O2 and 88% N2.
(§7) The stock solutions of Example 1A, and CQ employed as the positive control (prepared as a 10 mM stock solution in PBS), were stored at −20° C. Each working solution was freshly prepared in cell culture medium.
(§8) In vitro inhibitory concentration assays. P. falciparum clones 3D7 and Dd2 were maintained continuously in blood group O+ human erythrocytes and 10% human serum in a gas mixture consisting of 7% CO2, 5% O2, and 88% N2, synchronized by serial treatments with 5% D-sorbitol. In vitro growth inhibition of ring-stage-parasitized erythrocytes starting at 1% parasitemia and 2.5% hematocrit was determined by light microscopy of Giemsa-stained smears.

The subject of data set [6] is P. falciparum multi-drug resistant (MDR) clone Dd2. Briefly: In vitro inhibitory concentration assay, light microscopy of Giemsa-stained smears (Example 1C), clone Dd2. It is filed as cell-based. To be noted: Plasmodium falciparum, 10^−4 g/L, read-out: Percent of Inhibition (%, Mean ± SD) Dd2. Here is the method: as §6, §7, §8
Data set [7] has as its system P. falciparum infection. The data set is described as follows: Expected oral treatment of patients, standard blood film monitoring. The following applies: patient, aqueous composition, total daily dosage up to about 500 mg of each active. In kind it is in vivo, Plasmodium falciparum.
Data set [8] relates to P. falciparum drug-sensitive (DS) clone 3D7. Briefly: In vitro growth inhibition IC50, Giemsa-stained smears (Example 1D), clone 3D7. To be noted: Plasmodium falciparum. In kind it is cell-based. Here is the method: as §1, §2, §3, §4, §5
Data set [9] deals with P. falciparum DD2. Briefly: Checkerboard assay (FIC index). The following applies: for MIC: Plasmodium falciparum, DD2, each component used alone. It is filed as cell-based, Plasmodium falciparum. Here is the method:
Checkerboard assay. The anti-malaria activity of Luohan fruit extracts and Stevia leaf extracts in vitro were determined and predicted using the malarial strain P. falciparum DD2. Samples are mixed into 1:2 series dilutions and the FIC index (FICI) is calculated. (Rand, K. H., Houck, H. J., Brown, P. et al. “Reproducibility of the microdilution checkerboard method for antibiotic synergy,” Antimicrobial Agents & Chemotherapy (1993) 37:613-5; Eliopoulos, G. M., Moellering R. C. in Antibiotics in Laboratory Medicine, ed. Lorian V (Williams & Wilkins, Baltimore, Md., 1991), pp 432-492; Ghannoum, M. A., Fu, Y., Ibrahim, A. S., Mortara, L. A., Shafiq, M. C., Edwards, J. E., Jr., Criddle, R. S. Antimicrob. Agents Chemother. (1995) 39:2459-2465; Barchiesi, F., DiFrancesco, L. F., Scalise, G. “In Vitro Activities of Terbinafine in Combination With Fluconazole and Itraconazole Against Isolates of Candida albicans With Reduced Susceptibility to Azoles,” Antimicrob. Agents Chemother. (1997) 41:1812-1814. Each of the foregoing references are incorporated herein by reference in their entirety.)
To determine whether the readout of the combination therapy is additive, synergistic, or indifferent, the FIC index (FICI) was calculated by the use of the checkerboard assay. The FICI represents the sum of the FICs of each drug tested, where the FIC (fractional inhibitory concentration) is determined for each drug by dividing the MIC of each drug when used in combination by the MIC of each drug when used alone. FICI=(MICdrug A in combination/MICdrug A alone)+(MICdrug B in combination/MICdrug B alone). The preassumptions are that (i) testing uses concentrations separated by a factor of 2, and (ii) one-dilution-step MIC changes are within the range of experimental error. Other sophisticated methods have also been used; for example, a contour surface-plot methodology was used in characterizing the nature of three antifungal agents in combinations using various concentrations of each agent.

The subject of data set [10] is Plasmodium falciparum multidrug resistant strain (MDR) 7G8. The data set is described as follows: In vitro growth inhibition of P. falciparum 7G8, infection rate by Giemsa-stained smear (Example 1B). It is filed as cell-based. To be noted: 7G8, read-out: Antimalarial activity, IC50.
Description: The Plasmodium falciparum multidrug resistant strain (MDR) 7G8, (obtained from the Malaria Research and Reference Reagent Resource Centre (MR4), Manassas, Va., USA), was in vitro cultured in RMPI 1640 cell culture medium (supplemented with 10% Human Serum) with PCV (packed cell volume) at 5%. The P. falciparum was cell synchronized by adding 5% of D-sorbitol, and synchronized cells were then spread on culture plates after achieving ring form phase, with an initial infection rate of 1% and PCV at 5%.
as §3

In data set [11] the test system is P. falciparum clone Dd2. The data set is described as follows: Malaria SYBR Green I-based fluorescence method, clone Dd2. It is filed as cell-based. The following applies: Plasmodium falciparum, DD2, 72 h, read-out: In vitro susceptibility (IC50) Dd2. Here is the method: (§9) 1803-1806, Vol. 48, No. 5, with slight modifications. Drug solutions were serially diluted with culture medium and distributed to asynchronous parasite cultures in 96-well plates in quadruplicate to achieve 0.2% parasitaemia with a 2% haematocrit in a total volume of 100 μL. The plates were then incubated for 72 h at 37° C. Following incubation, 100 μL of lysis buffer with 0.2 μL/mL SYBR Green 1 was added to each well. The plates were incubated at 37° C. for 1 h in the dark and then placed in a 96-well fluorescence plate reader (Multilabel HTS Counter; PerkinElmer, Waltham, Mass., USA) with excitation and emission wavelengths at 497 nm and 520 nm, respectively, for measurement of fluorescence. The 50% inhibitory concentration (IC50) was determined by non-linear regression analysis of logistic dose—response curves using GraphPad Prism software (GraphPad Software Inc., La Jolla, Calif.). This example serves as a comparative method.
(§10) Next, the assay portion of procedure of Example 1C was performed using Coartem as a positive control.

For data set [12], the system named is P. falciparum clone 3D7. Briefly: Malaria SYBR Green I-based fluorescence method, clone 3D7. To be noted: Plasmodium falciparum, 3D7, 72 h, read-out: In vitro susceptibility (IC50) 3D7. In kind it is cell-based. Here is the method:
as §9, §10

Where [13] appears, read: Example 2E (control): artemesinin with Reb A.

The values below come from US9943558B2, “Compositions and methods for treating multi-drug resistant malaria” (Febris Bio-Tech Limited, priority 2011, dated 2018).

Values after ≈ are worked out from the molar mass of the structure shown. Read-outs that look alike come from different tables or passages of the source.

For `C=C1C[C@@]23CC[C@H]4[C@@](C)(CCC[C@@]4(C)C(=O)O[C@@H]4O[C@H](CO)[C@@H](O)[C@H](O)[C@H]4O)[C@@H]2CC[C@]1(O[C@@H]1O[C@H](CO)[C@@H](O)[C@H](O)[C@H]1O[C@@H]1O[C@H](CO)[C@@H](O)[C@H](O)[C@H]1O)C3` [stevioside], the “half-life (t1/2)” value in data set [1] was “approximately 14 hours”.

For the compound `CCCCN(CCCC)CC(O)c1cc(Cl)cc2c1-c1ccc(Cl)cc1/C2=C/c1ccc(Cl)cc1` (racemic) [lumefantrine, (+/−)-2-dibutylamino-1-[2,7-dichloro-9-(4-chlorobenzylidene)-9,11-fluoren-4-yl]ethanol], the elimination entry in data set [2] is on record as “eliminated more slowly”.

As to `C=C1C[C@@]23CC[C@H]4[C@@](C)(CCC[C@@]4(C)C(=O)OC4OC(CO)C(O)C(O)C4O)[C@@H]2CC[C@]1(OC1OC(CO)C(O)C(OC2OC(CO)C(O)C(O)C2O)C1OC1OC(CO)C(O)C(O)C1O)C3` (stereo partly drawn) [Sample No. 1, (14α)-13-[(2-O-β-D-glucopyranosyl-3-O-β-D-glucopyranosyl-β-D-glucopyranosyl)oxy]kaur-16-en-19-oic acid β-D-glucopyranosyl ester], the “adverse hemodynamic effects or blood glucose lowering effects” value in data set [1] (at the dosages used herein) is given as “does not exhibit adverse hemodynamic effects or blood glucose lowering effects”. The “half-life (t1/2)” value in data set [1] is given as “approximately 14 hours”. Further, the IC50 – broadly, the concentration that inhibits the measured activity by half – was 376 ± 12.4 nM in data set [3] (clone Dd2 (MDR), Giemsa smear, read-out: IC50, av. Dd2 (MDR)) and 220 ± 10.2 nM in data set [8] (clone 3D7 (DS), Giemsa smear, read-out: IC50, av. 3D7 (DS)). The solubility in water entry in data set [4] is on record as “fully water soluble”. In addition, the inhibition (commonly the change of the read-out against control, counted positive when it falls) at 0.1 µg/mL was 41.3% in data set [5] and 56.1 ± 1.36% in data set [6]. Also, the “expected time until P. falciparum infection is suppressed or inhibited” value in data set [7] lay in the range of 3 to 7 days. In addition, the values for the MIC in combination in data set [9] (Example 2D: compound A with Reb A) and in data set [9] (setting [13]) were 94 nM and 376 nM, respectively. Also, the MIC (as a rule, the lowest concentration found to suppress growth) in data set [9] is 376 nM.

In the case of `C[C@H](CC[C@@H](OC1OC(COC2OC(CO)C(O)C(O)C2O)C(O)C(O)C1OC1OC(CO)C(O)C(O)C1O)C(C)(C)O)[C@H]1CC[C@@]2(C)[C@@H]3CC=C4[C@@H](CC[C@H](OC5OC(COC6OC(CO)C(O)C(O)C6O)C(O)C(O)C5O)C4(C)C)[C@]3(C)[C@H](O)C[C@]12C` (stereo partly drawn) [mogroside V, (3β,9β,10α,11α,24R)-3-[(6-O-β-D-glucopyranosyl-β-D-glucopyranosyl)oxy]-11,25-dihydroxy-9-methyl-19-norlanost-5-en-24-yl-O-β-D-glucopyranosyl-(1-2)-O-[β-D-glucopyranosyl-(1-6)]-β-D-glucopyranoside], the solubility in water entry in data set [4] is on record as “fully water soluble”.

In the case of `CO[C@H]1O[C@@H]2O[C@@]3(C)CC[C@H]4[C@H](C)CC[C@@H]([C@H]1C)[C@@]24OO3` [Artemether, artemether], the elimination entry in [2] is “rapidly eliminated”.

As to `C[C@@H]1CC[C@H]2[C@@H](C)C(=O)O[C@@H]3O[C@@]4(C)CC[C@@H]1[C@]32OO4` [Artemisinin, reference compound], in data set [4], the solubility in water entry was “poorly soluble in water”. Further, the MIC in combination in data set [9] (setting [13]) stood at 0.0081 nM. The MIC in data set [9] is 0.13 nM.

For the compound `CCN(CC)CCCC(C)Nc1ccnc2cc(Cl)ccc12` (centres unmarked) [CQ, chloroquine], the IC50 was determined as 22.6 ± 0.82 nM in data set [3] (DD2, read-out: IC50, av. Dd2 (MDR)); 0.264 ± 0.012 µg/mL (≈ 0.825 µM) in [10]; 22.1 ± 1.96 nM in [11]; 1.63 ± 0.1 nM in [12]; 1.37 ± 0.12 nM in data set [8] (3D7, read-out: IC50, av. 3D7 (DS)).
